Assay results taken from patent US6358884B1, “Bacteriocidal and fungicidal solution containing inorganic silver complex salt and process for producing the same” (Sumitomo Metal Mining Co., Ltd., priority 1997, dated 2002).

Legend:
[1] = system: bacteria; details: according to "Metal", vol. 65 (1995), No. 11; cited from earlier work
[2] = system: fungi; details: according to "Metal", vol. 65 (1995), No. 11; cited from earlier work
[3] = system: Staphylococcus aureus; test: Bacteriocidal test for Staphylococcus aureus (sprayed filter paper, plate culture); type: cell-based
Experimental: Using the same aqueous solution containing silver as the chloro complex salt as in Example 1 above a bacteriocidal effect to Staphylococcus aureus was evaluated. As a comparison, a bacteriocidal test was conducted in the same manner by using a sterilizing ethanol as a bacteriocidal agent instead of the aqueous solution described above. The evaluation method is as shown below.
Each of the test specimen solutions was sprayed each about by 1 g as the bacteriocidal agent do so as to be substantially uniform by using a spray on 5A filter paper of 11 cm diameter and then each filter paper was left in a room with no air conditioning facility at a room temperature for 24 hours. Subsequently, a bacteria solution adjusted to a cell number of 7×10^4 N/ml by a preliminary test was dropped each by 1 ml by using a micro-pipette to each filter paper and further left in a room with no air conditioning facility at a room temperature for 24 hours.
Then, each filter paper was transferred to a sterilized cup, and vigorously shaken for 2 min by a shaker with addition of 100 ml of water. Subsequently, 1 ml of a test solution was sampled from each of sterilized cups, subjected to plate culture at 36° C. for 72 hours each with addition of ordinary agar culture medium, and the number of colonies formed was counted.
Further as a blank test, 1 ml of a solution diluted by 100 times from the bacterial solution described above (the number of cells about 7×10^4 N/ml) was sampled to a Shale without using the bacteriocidal agent, cultivated in the same manner as described above with addition of a usual agar medium, and the number of formed colonies was counted.

Molecule	concentration showing slow releasing bacteriocidal effect [1]	concentration showing slow releasing fungicidal effect [2]	Number of cells in Shale ([3]; about 1 g sprayed on filter paper, 1 ml bacteria solution 7×10^4 N/ml, 24 h, plate culture 36° C. 72 hours)	colonies in the Shale ([3]; cultivation time of 48 hours)	Number of cells per filter paper ([3]; per filter paper (1 ml of bacterial solution), plate culture 36° C. 72 hours)	Increase/decrease ratio for Number of cell ([3]; ratio to the number of cells dropped to filter paper (7×10^4 N/ml), 72 hours cultivation)
silver ions	≥ 0.05 mg/L	≥ 0.5 mg/L				
CCO [Sterilizing ethanol, ethanol]			507	colonies were already formed	5.1 × 10^4	72.9%
